Assay: Metabolic stability in human liver microsomes
Format: in vitro ADME
Conditions: for difference in half-life and intrinsic clearance compared with the corresponding non-deuterated methylone hydrochloride: human liver microsomes; for CLint (μL/min/mg protein): human liver microsomes 0.5 mg/mL, 1 μM compound, NADPH, 0-45 min
Experimental: Pooled liver microsomes are purchased from a reputable commercial supplier. Microsomes are stored at […] prior to use. Microsomes (final protein concentration 0.5 mg/mL), 0.1 M phosphate buffer pH 7.4 and test compound (final substrate concentration 1 μM; final DMSO concentration 0.25%) are preincubated at 37° C. prior to the addition of NADPH (final concentration 1 mM) to initiate the reaction. A minus cofactor control incubation is included for each compound tested where 0.1 M phosphate buffer pH 7.4 is added instead of NADPH (minus NADPH). Two control compounds are included with each species. All incubations are performed singularly for each test compound. Each compound is incubated for 0, 5, 15, 30 and 45 min. The control (minus NADPH) is incubated for 45 min only. The reactions are stopped by transferring incubate into acetonitrile at the appropriate time points, in a 1:3 ratio. The termination plates are centrifuged at 3,000 rpm for 20 min at 4° C. to precipitate the protein.
From a plot of ln peak area ratio (compound peak area/internal standard peak area) against time, the gradient of the line is determined. Subsequently, half-life and intrinsic clearance are calculated using the equations below: Elimination rate constant (k)=(−gradient) Half-life (t½)(min)=0.693/k Intrinsic clearance (CLint)(μL/min/mg protein)=V×0.693/t½ where V=Incubation volume (μL)/Microsomal protein (mg)
Relevant control compounds were assessed, ensuring intrinsic clearance values fall within the specified limits (if available).

Row | SMILES | difference in half-life and intrinsic clearance compared with the corresponding non-deuterated methylone hydrochloride | CLint (μL/min/mg protein)
1 | Cl.[2H]C([2H])([2H])N[C@H](C)C(=O)c1ccc2c(c1)OC([2H])([2H])O2 [(R)-Methylone-d5 hydrochloride, (R)-1-(benzo[d][1,3]dioxol-5-yl-2,2-d2)-2-((methyl-d3)amino)propan-1-one HCl] | most significant difference in half-life and intrinsic clearance | 6.27 μL/min/mg protein
2 | Cl.[2H]C1([2H])Oc2ccc(C(=O)[C@@H](C)NC)cc2O1 [(R)-Methylone-d2 hydrochloride, (R)-1-(benzo[d][1,3]dioxol-5-yl-2,2-d2)-2-((methyl)amino)propan-1-one HCl] | differences in half-life and intrinsic clearance | –
3 | Cl.[2H]C([2H])([2H])NC(C)C(=O)c1ccc2c(c1)OCO2 (racemic) [(rac)-Methylone-d3 hydrochloride, 1-(benzo[d][1,3]dioxol-5-yl)-2-((methyl-d3)amino)propan-1-one HCl] | differences in half-life and intrinsic clearance | –
4 | Cl.[2H]C([2H])([2H])N[C@H](C)C(=O)c1ccc2c(c1)OCO2 [(R)-Methylone-d3 hydrochloride, (R)-1-(benzo[d][1,3]dioxol-5-yl)-2-((methyl-d3)amino)propan-1-one HCl] | differences in half-life and intrinsic clearance | –
5 | Cl.[2H]C([2H])([2H])N[C@@H](C)C(=O)c1ccc2c(c1)OC([2H])([2H])O2 [(S)-Methylone-d5 hydrochloride, (S)-1-(benzo[d][1,3]dioxol-5-yl-2,2-d2)-2-((methyl-d3)amino)propan-1-one hydrochloride] | most significant difference in half-life and intrinsic clearance | 9.07 μL/min/mg protein
6 | Cl.[2H]C1([2H])Oc2ccc(C(=O)[C@H](C)NC)cc2O1 [(S)-Methylone-d2 hydrochloride, (S)-1-(benzo[d][1,3]dioxol-5-yl-2,2-d2)-2-(methylamino)propan-1-one hydrochloride] | differences in half-life and intrinsic clearance | –
7 | Cl.[2H]C([2H])([2H])N[C@@H](C)C(=O)c1ccc2c(c1)OCO2 [(S)-Methylone-d3 hydrochloride, (S)-1-(benzo[d][1,3]dioxol-5-yl)-2-((methyl-d3)amino)propan-1-one HCl] | differences in half-life and intrinsic clearance | 9.60 μL/min/mg protein

Source: US12234216B2, “Isotopologues salts, crystalline forms, stereoisomers, of methylone and ethylone and methods of use thereof” (Terran Biosciences Inc., priority 2021, dated 2025)
